Columns and labels:
Chenopodium album = assay: Herbicidal mixture trial, percentage weed control; type: in vivo; details: Pinoxaden 46 g/ha, Metribuzin 280 g/ha, 2,4-D 500 g/ha
Description: (§1) Trials were carried out for evaluating the herbicidal mixtures of the invention on different weeds. The percentage control was calculated from the observed percent weed coverage data after 15 DAA and 30 DAA.

Phalaris minor = assay: Herbicidal mixture trial, percentage weed control; type: in vivo; details: Pinoxaden 46 g/ha, Metribuzin 280 g/ha, 2,4-D 500 g/ha
Description: as §1

[1] = 15 DAA, combination 64 g/ha + 725 g/ha + 280 g/ha
[2] = 30 DAA, combination 64 + 725 + 280

Row | Compound | percentage control, Actual (Chenopodium album; [1]) [%] | percentage control, Actual (Chenopodium album; [2]) [%] | percentage control, Actual (Phalaris minor; [1]) [%] | percentage control, Actual (Phalaris minor; [2]) [%]
1 | O=C(O)COc1ccc(Cl)cc1Cl [2,4-D] | 90.3 | 86 | 29 | 30.2
2 | CSc1nnc(C(C)(C)C)c(=O)n1N [Metribuzin] | 78 | 88 | 67.4 | 73.8
3 | CCc1cc(C)cc(CC)c1-c1c(OC(=O)C(C)(C)C)n2n(c1=O)CCOCC2 [Pinoxaden, N 8-(2,6-diethyl-p-tolyl)-1,2,4,5-tetrahydro-7-oxo-7H-pyrazolo[1,2-d][1,4,5]oxadiazepin-9-yl 2,2-dimethylpropionate] | 68 | 85.3 | 53.4 | 73.6
